These results are taken from patent US9174980B2, “Heterocyclic compounds as inhibitors of leukotriene production” (Boehringer Ingelheim International GmbH, priority 2012, dated 2015).

In test [1] the target is T1, recombinant human FLAP protein (Homo sapiens, UniProt P20292).
T1 construct: made in house; host or cells: Sf9 insect cells (membrane fraction, 100,000 x g pellet)
T1 sequence (P20292 1-161): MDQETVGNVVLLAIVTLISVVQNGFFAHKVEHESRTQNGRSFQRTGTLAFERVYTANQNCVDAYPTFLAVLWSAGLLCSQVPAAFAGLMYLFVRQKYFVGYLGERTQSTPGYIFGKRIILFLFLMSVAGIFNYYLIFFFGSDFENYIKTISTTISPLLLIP
Nature of the test: FLAP binding assay (Scintillation Proximity Assay, displacement of [125I]L-691,831). The conditions noted are these: read-out: Human FLAP SPA Binding (IC50 nM). A digest of the protocol: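 Membranes from sf9 cells expressing recombinant human FLAP (5 μg/well) on WGA SPA beads were incubated with compound and 0.08 nM [125I]L-691,831 in Tris pH 7.5 binding buffer, shaken 2 h. Displacement read by scintillation proximity; non-specific binding set with 10 μM unlabelled L-691,831.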

The test system of test [2] is synthesis of LTB4 in human whole blood. Nature of the test: Human whole blood assay (calcimycin-stimulated LTB4 synthesis). To be noted: Homo sapiens; read-out: Human Whole Blood LTB4 Assay for FLAP (IC50 nM). Type of test: cell-based. A digest of the protocol:
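Steps: compound plus heparinized human whole blood, 15 min at 37° C; add calcimycin to 20 μM final; incubate another 30 min at 37° C; centrifuge at low speed and collect plasma; measure LTB4 with a homogeneous time-resolved fluorescence immunoassay.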

For test [3], the system named is apoE/LDL-R double knockout mice. To be noted: oral dosing, high-fat diet from 2 months of age to 6 months; cited from earlier work.
The next test deals with ApoE−/−xCD4dnTβRII mice. To be noted: infusion, treated for four weeks; cited from earlier work.

What is called IC50 is the concentration that inhibits the measured activity by half.

Take `CN(C)CCn1cc(-c2cc(C(C)(c3ccc(-c4cnc(N)nc4)cc3)C3CC3)no2)cn1` (stereo not shown) [Example 187, 5-{4-[1-cyclopropyl-1-(5-{1-[2-(dimethylamino)ethyl]-1H-pyrazol-4-yl}-1,2-oxazol-3-yl)ethyl]phenyl}pyrimidin-2-amine]: the 50% inhibitory concentration (IC50) was 9.9 nM in test [1] and 67 nM in test [2].
For `Cn1cc(-c2c(C3(c4ccc(-c5cnc(N)nc5)cc4)CCC3)c3ccccc3n2C(=O)OC(C)(C)C)cn1` [Example 188, tert-butyl 3-{1-[4-(2-aminopyrimidin-5-yl)phenyl]cyclobutyl}-2-(1-methyl-1H-pyrazol-4-yl)-1H-indole-1-carboxylate], in that order: 270 nM and above 5000 nM.
For the compound `Cn1cc(-c2[nH]c3ccccc3c2C2(c3ccc(-c4cnc(N)nc4)cc3)CCC2)cn1` [Example 189], the IC50 in test [1] amounted to 5.3 nM; in test [2], 280 nM.
For `Cn1cc(-c2cnc(C3(c4ccc(-c5cnc(N)nc5)cc4)CCC3)s2)cn1` [Example 190, 5-(4-{1-[5-(1-methyl-1H-pyrazol-4-yl)-1,3-thiazol-2-yl]cyclobutyl}phenyl)pyrimidin-2-amine], in that order: 4.9 nM and 80 nM.
Regarding `CC(C)[C@](C)(c1ccc(-c2cnc(N)nc2)nc1)c1cc(-c2cnn(C)c2)on1` [Example 191, 5-(5-{(2R)-3-methyl-2-[5-(1-methyl-1H-pyrazol-4-yl)-1,2-oxazol-3-yl]butan-2-yl}pyridin-2-yl)pyrimidin-2-amine], the IC50 in test [1] was found to be 7.5 nM; in test [2], 56 nM.
On the same counts, the results for `CC(C)[C@@](C)(c1ccc(-c2cnc(N)nc2)nc1)c1cc(-c2cnn(C)c2)on1` [Example 192, 5-(5-{(2S)-3-methyl-2-[5-(1-methyl-1H-pyrazol-4-yl)-1,2-oxazol-3-yl]butan-2-yl}pyridin-2-yl)pyrimidin-2-amine] are 210 nM and 1900 nM.
As for `COCCNC(=O)c1[nH]c2ccccc2c1C1(c2ccc(-c3cnc(N)nc3)cc2)CCC1` [Example 193], the IC50 in test [1] was found to be 7.9 nM; in test [2], 450 nM.
For the compound `CN(C)C(=O)Cn1cc(-c2coc(C(C)(c3ccc(-c4cnc(N)nc4)cc3)C3CC3)n2)cn1` (stereo not shown) [Example 194, 2-[4-(2-{1-[4-(2-aminopyrimidin-5-yl)phenyl]-1-cyclopropylethyl}-1,3-oxazol-4-yl)-1H-pyrazol-1-yl]-N-dimethylacetamide], the values for the IC50 in test [1] and in test [2] were 40 nM and 560 nM, respectively.
For `CN(C)C(=O)Cn1cc(-c2coc([C@@](C)(c3ccc(-c4cnc(N)nc4)cc3)C3CC3)n2)cn1` [Example 195, 2-[4-(2-{(1R)-1-[4-(2-aminopyrimidin-5-yl)phenyl]-1-cyclopropylethyl}-1,3-oxazol-4-yl)-1H-pyrazol-1-yl]-N,N-dimethylacetamide], in that order: 18 nM and 280 nM.
On the same counts, the results for `CN(C)C(=O)Cn1cc(-c2coc([C@](C)(c3ccc(-c4cnc(N)nc4)cc3)C3CC3)n2)cn1` [Example 196, 2-[4-(2-{(1S)-1-[4-(2-aminopyrimidin-5-yl)phenyl]-1-cyclopropylethyl}-1,3-oxazol-4-yl)-1H-pyrazol-1-yl]-N,N-dimethylacetamide] are 380 nM and 2000 nM.
On the same counts, the results for `CN(C)C(=O)Cn1cc(-c2cc([C@@](C)(c3ccc(-c4cnc(N)nc4)cc3)C3CC3)no2)cn1` [Example 197, 2-[4-(3-{(1R)-1-[4-(2-aminopyrimidin-5-yl)phenyl]-1-cyclopropylethyl}-1,2-oxazol-5-yl)-1H-pyrazol-1-yl]-N,N-dimethylacetamide] are 5.3 nM and 93 nM.
For the compound `CN(C)C(=O)Cn1cc(-c2cc([C@](C)(c3ccc(-c4cnc(N)nc4)cc3)C3CC3)no2)cn1` [Example 198, 2-[4-(3-{(1S)-1-[4-(2-aminopyrimidin-5-yl)phenyl]-1-cyclopropylethyl}-1,2-oxazol-5-yl)-1H-pyrazol-1-yl]-N,N-dimethylacetamide], the IC50 in test [1] is 350 nM; in test [2], 1600 nM.
For `Cn1cc(-c2cc(C(C)(c3ccc(-c4cnc(N)nc4)nc3)C3CC3)no2)cn1` (stereo not shown) [Example 199, 5-(5-{1-Cyclopropyl-1-[5-(1-methyl-1H-pyrazol-4-yl)-isoxazol-3-yl]-ethyl}-pyridin-2-yl)-pyrimidin-2-ylamine], the concentration for half-maximal inhibition (IC50) worked out at 230 nM in test [1] and 590 nM in test [2].
Turning to `Cn1cc(-c2cc([C@@](C)(c3ccc(-c4cnc(N)nc4)nc3)C3CC3)no2)cn1` [Example 200], the IC50 worked out at 140 nM in test [1] and 450 nM in test [2].
On the same counts, the results for `Cn1cc(-c2cc([C@](C)(c3ccc(-c4cnc(N)nc4)nc3)C3CC3)no2)cn1` [Example 201, 5-(5-{(S)-1-Cyclopropyl-1-[5-(1-methyl-1H-pyrazol-4-yl)-isoxazol-3-yl]-ethyl}-pyridin-2-yl)-pyrimidin-2-ylamine] are above 2000 nM and 3500 nM.
As for `CC(C)(O)Cn1cc(-c2coc(C(C)(c3ccc(-c4cnc(N)nc4)cc3)C3CC3)n2)cn1` (stereo not shown) [Example 202, 1-[4-(2-{1-[4-(2-Amino-pyrimidin-5-yl)-phenyl]-1-cyclopropyl-ethyl}-oxazol-4-yl)-pyrazol-1-yl]-2-methyl-propan-2-ol], the values for the IC50 in test [1] and in test [2] were 69 nM and 230 nM, respectively.
On the same counts, the results for `CC(C)(O)Cn1cc(-c2coc([C@@](C)(c3ccc(-c4cnc(N)nc4)cc3)C3CC3)n2)cn1` [Example 203, 1-[4-(2-{(R)-1-[4-(2-Amino-pyrimidin-5-yl)-phenyl]-1-cyclopropyl-ethyl}-oxazol-4-yl)-pyrazol-1-yl]-2-methyl-propan-2-ol] are 36 nM and 190 nM.
As for `CC(C)(O)Cn1cc(-c2coc([C@](C)(c3ccc(-c4cnc(N)nc4)cc3)C3CC3)n2)cn1` [Example 204, 1-[4-(2-{(S)-1-[4-(2-Amino-pyrimidin-5-yl)-phenyl]-1-cyclopropyl-ethyl}-oxazol-4-yl)-pyrazol-1-yl]-2-methyl-propan-2-ol], the values for the IC50 in test [1] and in test [2] were 560 nM and 1500 nM, respectively.
Take `CN(C)C(=O)Cn1cc(-c2coc(C(C)(c3ccc(-c4cnc(N)nc4)nc3)C3CC3)n2)cn1` (stereo not shown) [Example 205, 2-[4-(2-{1-[6-(2-Amino-pyrimidin-5-yl)-pyridin-3-yl]-1-cyclopropyl-ethyl}-oxazol-4-yl)-pyrazol-1-yl]-N,N-dimethyl-acetamide]: the IC50 in test [1] stood at 1500 nM; in test [2], 1600 nM.
For `Cn1cc(-c2coc(C(C)(c3ccc(-c4cnc(N)nc4)nc3)C3CC3)n2)cn1` (stereo not shown) [Example 206, 5-(5-{1-Cyclopropyl-1-[4-(1-methyl-1H-pyrazol-4-yl)-oxazol-2-yl]-ethyl}-pyridin-2-yl)-pyrimidin-2-ylamine], in that order: 180 nM and 930 nM.
Turning to `Cn1cc(-c2coc([C@@](C)(c3ccc(-c4cnc(N)nc4)nc3)C3CC3)n2)cn1` [Example 207, 5-(5-{(R)-1-Cyclopropyl-1-[4-(1-methyl-1H-pyrazol-4-yl)-oxazol-2-yl]-ethyl}-pyridin-2-yl)-pyrimidin-2-ylamine], the results for the IC50 in test [1] and in test [2] were 110 nM and 220 nM, respectively.
As for `Cn1cc(-c2coc([C@](C)(c3ccc(-c4cnc(N)nc4)nc3)C3CC3)n2)cn1` [Example 208, 5-(5-{(S)-1-Cyclopropyl-1-[4-(1-methyl-1H-pyrazol-4-yl)-oxazol-2-yl]-ethyl}-pyridin-2-yl)-pyrimidin-2-ylamine], the IC50 in test [1] is above 2000 nM; in test [2], 1300 nM.
For `CC(C)(O)Cn1cc(-c2coc(C(C)(c3ccc(-c4cnc(N)nc4)nc3)C3CC3)n2)cn1` (stereo not shown) [Example 209, 1-[4-(2-{1-[6-(2-Amino-pyrimidin-5-yl)-pyridin-3-yl]-1-cyclopropyl-ethyl}-oxazol-4-yl)-pyrazol-1-yl]-2-methyl-propan-2-ol], in that order: 300 nM and 560 nM.
Consider `CC(C)(O)Cn1cc(-c2coc([C@@](C)(c3ccc(-c4cnc(N)nc4)nc3)C3CC3)n2)cn1` [Example 210, 1-[4-(2-{(R)-1-[6-(2-Amino-pyrimidin-5-yl)-pyridin-3-yl]-1-cyclopropyl-ethyl}-oxazol-4-yl)-pyrazol-1-yl]-2-methyl-propan-2-ol], for which the IC50 in test [1] is 180 nM; in test [2] it was 530 nM.
Turning to `CC(C)(O)Cn1cc(-c2coc([C@](C)(c3ccc(-c4cnc(N)nc4)nc3)C3CC3)n2)cn1` [Example 211, 1-[4-(2-{(S)-1-[6-(2-Amino-pyrimidin-5-yl)-pyridin-3-yl]-1-cyclopropyl-ethyl}-oxazol-4-yl)-pyrazol-1-yl]-2-methyl-propan-2-ol], the half-inhibitory concentration (IC50) in test [1] is above 2000 nM; in test [2], above 5000 nM.
With `CC(C)(O)Cn1cc(-c2cnc(C(C)(c3ccc(-c4cnc(N)nc4)nc3)C3CC3)s2)cn1` (stereo not shown) [Example 212, 1-[4-(2-{1-[6-(2-Amino-pyrimidin-5-yl)-pyridin-3-yl]-1-cyclopropyl-ethyl}-thiazol-5-yl)-pyrazol-1-yl]-2-methyl-propan-2-ol], the half-inhibitory concentration (IC50) in test [1] was found to be 130 nM; in test [2] it was 410 nM.
On to `CC(C)c1ccc2c(c1)c(SC(C)(C)C)c(CC(C)(C)C(=O)O)n2Cc1ccc(Cl)cc1` [MK-886], for which, in test [3], the “decrease in plaque coverage in the aorta” value was 56% and the “decrease in plaque coverage in the aortic root” value was 43%. Also, the “decrease in plaque area in the aortic root” value in the test with ApoE−/−xCD4dnTβRII mice is recorded as around 40%.
